Laboratory results from US20030082194A1, “Compositions and methods for diagnosis and therapy of malignant mesothelioma” (priority 2000, published 2003).
Blank lines part the entries; values can stand above or below the molecule they belong to.

Legend:
[1] = tested on: mouse B6 class I antigens (D^b or K^b molecules on RMA-S cells); experiment: Peptide binding to C57Bl/6 murine MHC on RMA-S cells, flow cytometry (Tables 48, 49); assay type: cell-based
Description: In brief, RMA-S cells were cultured for 7 hrs at 26° C. in complete medium supplemented with 1% FCS. A total of […] RMA-S cells were added into each well of a 24-well plate and incubated either alone or with the designated peptide (25 μg/ml) for 16 hrs at 26° C. and additional 3 hrs at 37° C. in complete medium. Cells were then washed three times and stained with fluorescein isothiocyanate-conjugated anti Db or anti-Kb antibody (PharMingen, San Diego, CA). Labeled cells were washed twice, resuspended and fixed in 500 μl of PBS with 1% paraformaldehyde and analyzed for fluorescence intensity in a flow cytometer (Becton-Dickinson FACSCalibur®). The percentage of increase of D^b or K^b molecules on the surface of the RMA-S cells was measured by increased mean fluorescent intensity of cells incubated with peptide compared with that of cells incubated in medium alone.

[2] = tested on: T cells / spleen cells of immunized B6 mice; experiment: Proliferative T cell response, thymidine incorporation assay after immunization of B6 mice with WT1 peptides; assay type: cell-based, mouse; details: for stimulation index (SI), proliferative T cell response: B6 mice immunized with WT1 peptides, thymidine incorporation, FIG. 3
[3] = tested on: targets incubated with WT1 peptides (EL-4); experiment: CTL chromium release assay, peptide-incubated targets; assay type: cell-based, mouse; details: for lysis of targets incubated with the relevant peptide by peptide specific CTL: chromium release assay; for generation of peptide specific CTL following immunization: mice immunized with peptide, spleen cells stimulated in vitro, chromium release
Description: (§1) Following immunization, spleen cells were stimulated in vitro and tested for the ability to lyse targets incubated with WT1 peptides. CTL were evaluated with a standard chromium release assay (Chen et al., 1994). […] target cells were incubated at 37° C. with 150 μCi of sodium ^51Cr for 90 min., in the presence or absence of specific peptides. Cells were washed three times and resuspended in RPMI with 5% fetal bovine serum. For the assay, 10^4 51Cr-labeled target cells were incubated with different concentrations of effector cells in a final volume of 200 μl in U-bottomed 96-well plates. Supernatants were removed after 4-7 hrs at 37° C., and the percentage specific lysis was determined by the formula:
(§2) % Specific lysis=100×(experimental release−spontaneous release)/(maximum release-spontaneous release).
(§3) P117-139, a peptide with motifs appropriate for binding to class I and class II MHC, was identified as described above using TSITES and BIMAS HLA peptide binding prediction analyses. Mice were immunized as described in Example 3. Following immunization, spleen cells were stimulated in vitro and tested for the ability to lyse targets incubated with WT1 peptides, as well as WT1 positive and negative tumor cells. CTL were evaluated with a standard chromium release assay.
Following immunization, spleen cells were stimulated in vitro with each of the 4 peptides and tested for ability to lyse targets incubated with WT1 peptides.

[4] = tested on: WT1 positive tumor cell lines (TRAMP-C, BLK-SV40); experiment: CTL chromium release assay, WT1 positive tumor cell lines; assay type: cell-based, mouse
Description: as §1, §2
as §3, with “assay. […]” for “assay.”

WT1 = experiment: Immunogenicity of WT1 protein immunization with MPL-SE, multiple dose titration in mice (Table 51); assay type: in vivo, mouse; details: MPL-SE adjuvant; doses 25 μg, 100 μg to 1000μg WT1 protein; female C57/B6 mice
Excerpt: (§4) The purpose of this example is to analyze the immunogenicity and potential systemic histopathological and toxicological effects of WT1 protein immunization in a multiple dose titration in mice.
(§5) The experimental design for immunization of mice with WT1 protein is outlined in Table 51.

[5] = Systemic histopathological and toxicological effects of WT1 protein immunization in mice; assay type: in vivo, mouse
Excerpt: as §4, §5
Special emphasis was put on evaluation of potential hematopoietic toxicity. The myeloid/erythroid ratio in sternum and femur marrow was normal.

[6] = even on an outpatient basis; cited from earlier work
[7] = target: Mouse B6 (C57Bl/6) MHC class I antigens on RMA-S cells (D^b or K^b) (mouse (C57Bl/6)); experiment: RMA-S MHC stabilisation, peptide 25 ug/ml, FITC anti-Db or anti-Kb, flow cytometry (MFI increase over medium alone)
[8] = target: Mouse B6 (C57Bl/6) MHC class I antigens on RMA-S cells (D^b or K^b) (mouse (C57Bl/6)); experiment: binding of 9-mer peptide to mouse B6 (H-2b) class I; RMA-S stabilisation assay as in Example 4
[9] = 9-mer peptides within p117-139, mouse B6 class I antigens, Table 49
[10] = peptide 25 μg/ml, percentage of increase of Db or Kb molecules (mean fluorescent intensity) vs medium alone, Table 48
[11] = mice immunized with WT1 protein

Molecule: P127-135 (MFPNAPYLP) [Peptide P127-135]
Binding Affinity to Mouse MHC Class I [1, 9]: 2%

Molecule: P119-127 (QASSGQARM) [Peptide P119-127]
Binding Affinity to Mouse MHC Class I [1, 9]: 2%

Molecule: P118-126 (SQASSGQAR) [Peptide P118-126]
Binding Affinity to Mouse MHC Class I [1, 9]: 2%

Molecule: P129-137 (PNAPYLPSC) [Peptide P129-137]
Binding Affinity to Mouse MHC Class I [1, 9]: 1%

Molecule: P117-125 (PSQASSGQA) [Peptide P117-125]
Binding Affinity to Mouse MHC Class I [1, 9]: 2%

Molecule: P120-128 (ASSGQARMF) [Peptide P120-128]
Binding Affinity to Mouse MHC Class I [1, 9]: 1%

Molecule: VRRVSGVAPTLVRS (listed as Mus musculus) [P299-313]
stimulation index (SI), proliferative T cell response [2]: 3.3

Molecule: P131-139 (APYLPSCLE) [Peptide P131-139]
Binding Affinity to Mouse MHC Class I [1, 9]: 1%

Molecule: p228-236 (QMTSQLECM)
Binding Affinity to Mouse MHC Class I [1, 10]: 1.2%

Molecule: CMTWNQMNL (listed as Homo sapiens, listed as Mus musculus) [SEQ ID NO:49]
Binding Affinity to Mouse MHC Class I [1, 10]: 33.6% | lysis of targets incubated with the relevant peptide by peptide specific CTL [3]: lysed targets incubated with the p235-243 peptides | generation of peptide specific CTL following immunization ([3]; listed as p235-243): peptide specific CTL lines were generated | lysis of WT1 positive tumor cells by peptide specific CTL [4]: failed to lyse cell lines that expressed WT1 proteins

Molecule: WT1 protein: WT1 protein used for vaccination of mice with MPL-SE as adjuvant
WT1-specific antibody response (WT1): elicited a strong WT1-specific antibody response | cellular T-cell responses (WT1): cellular T-cell responses | histological evidence for toxicity in tissues ([5]; adrenal gland, brain, colon, heart, kidney, liver, lung, marrow, spleen and other listed tissues): No histological evidence for toxicity | blood cell counts and blood chemistry (BUN, creatinine, bilirubin, albumin, globulin) [5, 11]: within the normal range | myeloid/erythroid ratio in sternum and femur marrow [5, 11]: normal | systemic histopathological or toxicological effects of immunization ([5]; mice, multiple dose titration): No systemic histopathological or toxicological effects

Molecule: NLYQMTSQL (listed as Homo sapiens) [SEQ ID NO:147]
Binding Affinity to Mouse MHC Class I [1, 10]: 5.8%

Molecule: P125-133 (ARMFPNAPY) [Peptide P125-133]
Binding Affinity to Mouse MHC Class I [1, 9]: 1%

Molecule: GATLKGVAAGSSSSVKWTE (listed as Homo sapiens) [p244-262]
stimulation indices (SI), proliferative T cell responses to the immunizing peptides ([2]; Vaccine A, bulk lines, peptide 25 μg/ml, 96 hr, FIG. 4A): No proliferative response

Molecule: ALLPAVPSL (listed as Homo sapiens) [SEQ ID NO:34]
Binding Affinity to Mouse MHC Class I [1, 10]: 2.2% | generation of peptide specific CTL following immunization [3]: peptide specific CTL lines were generated

Molecule: SCLESQPAI (listed as Homo sapiens) [SEQ ID NO:198]
Binding Affinity to Mouse MHC Class I [1, 10]: 52% | generation of peptide specific CTL following immunization [3]: peptide specific CTL lines were generated

Molecule: P124-132 (QARMFPNAP) [Peptide P124-132]
Binding Affinity to Mouse MHC Class I [1, 9]: 1%

Molecule: P121-129 (SSGQARMFP) [Peptide P121-129]
Binding Affinity to Mouse MHC Class I [1, 9]: 1%

Molecule: monophosphoryl lipid A [MPL]
dose known to be safe for human use [6]: 100 μg/m^2

Molecule: p221-229 (YSSDNLYQM)
Binding Affinity to Mouse MHC Class I [1, 10]: 0.8%

Molecule: p329-337 (GCNKRYFKL)
Binding Affinity to Mouse MHC Class I [1, 10]: 1.2%

Molecule: RDLNALLPAVPSLGGGG (listed as Homo sapiens) [p6-22]
stimulation index (SI), proliferative T cell response [2]: 2.3 | proliferation of Vaccine A specific T cell line after single peptide in vitro stimulation ([2]; FIG. 5A, 5C): proliferation to p6-22 with no response to p117-139

Molecule: NAPYLPSCL (listed as Homo sapiens) [SEQ ID NO:144]
Binding Affinity to Mouse MHC Class I [1, 9]: 79% | binding to H-2b class I molecules / class I MHC molecules ([1]; peptide 25 μg/ml): shown to bind to H-2b class I molecules | lysis of targets incubated with 9-mer peptide by CTL generated by immunization with p117-139 ([3]; FIG. 10A): lysed | lysis of targets incubated with the relevant peptide by peptide specific CTL [3]: demonstrated peptide specific lysis | lysis of WT1 positive tumor cells by peptide specific CTL [4]: showed lysis of a WT1 positive tumor cell line

Molecule: P128-136 (FPNAPYLPS) [Peptide P128-136]
Binding Affinity to Mouse MHC Class I [1, 9]: 1%

Binding Affinity to Mouse MHC Class I (% increase of Db or Kb on RMA-S cells) [7]: 52%
Molecule: SCLESQPAI [WT1 peptide human p136-144 (…)]

Binding Affinity to Mouse MHC Class I (% increase of Db or Kb on RMA-S cells) [7]: 5.8%
Molecule: NLYQMTSQL [WT1 peptide p225-233 (…)]

Binding Affinity to Mouse MHC Class I (%) [8]: 2%
Molecule: PSQASSGQA [WT1 peptide P117-125 (…)]

Binding Affinity to Mouse MHC Class I (%) [8]: 1%
Molecule: ARMFPNAPY [WT1 peptide P125-133 (…)]

Binding Affinity to Mouse MHC Class I (%) [8]: 79%
Molecule: NAPYLPSCL [WT1 peptide P130-138 (…)]

Binding Affinity to Mouse MHC Class I (% increase of Db or Kb on RMA-S cells) [7]: 2.2%
Molecule: ALLPAVPSL [WT1 peptide human p10-18 (…)]

Binding Affinity to Mouse MHC Class I (%) [8]: 1%
Molecule: SSGQARMFP [WT1 peptide P121-129 (…)]

Binding Affinity to Mouse MHC Class I (% increase of Db or Kb on RMA-S cells) [7]: 0.8%
Molecule: YSSDNLYQM [WT1 peptide p221-229 (…)]

Binding Affinity to Mouse MHC Class I (%) [8]: 2%
Molecule: SQASSGQAR [WT1 peptide P118-126 (…)]

Binding Affinity to Mouse MHC Class I (%) [8]: 1%
Molecule: ASSGQARMF [WT1 peptide P120-128 (…)]

Binding Affinity to Mouse MHC Class I (%) [8]: 1%
Molecule: QARMFPNAP [WT1 peptide P124-132 (…)]

Binding Affinity to Mouse MHC Class I (% increase of Db or Kb on RMA-S cells) [7]: 1.2%
Molecule: QMTSQLECM [WT1 peptide p228-236 (…)]

Binding Affinity to Mouse MHC Class I (%) [8]: 1%
Molecule: APYLPSCLE [WT1 peptide P131-139 (…)]

Binding Affinity to Mouse MHC Class I (%) [8]: 2%
Molecule: MFPNAPYLP [WT1 peptide P127-135 (…)]

Binding Affinity to Mouse MHC Class I (% increase of Db or Kb on RMA-S cells) [7]: 1.2%
Molecule: GCNKRYFKL [WT1 peptide p329-337 (…)]

Binding Affinity to Mouse MHC Class I (%) [8]: 2%
Molecule: QASSGQARM [WT1 peptide P119-127 (…)]

Binding Affinity to Mouse MHC Class I (% increase of Db or Kb on RMA-S cells) [7]: 33.6%
Molecule: CMTWNQMNL [WT1 peptide p235-243 (…)]

Binding Affinity to Mouse MHC Class I (%) [8]: 1%
Molecule: FPNAPYLPS [WT1 peptide P128-136 (…)]

Binding Affinity to Mouse MHC Class I (%) [8]: 1%
Molecule: PNAPYLPSC [WT1 peptide P129-137 (…)]
